The source of these data is patent US12280179B2 (Urotronic, Inc., priority 2012, dated 2025).

Data set [1] can be described thus: stability of additives with paclitaxel under ethylene oxide sterilization, heating and aging. As to conditions: additive with paclitaxel; reacted with paclitaxel.
Data set [2] can be described thus: BPH Preclinical Study 4: plasma paclitaxel concentration. It counts as in vivo, dog. The source says: (§1) This study was completed on mongrel canines.
Data set [3] has as its system prostate. Briefly: BPH Preclinical Study 4: histology, clinical observation, urethra lumen diameter. It counts as in vivo, dog.
Source text: as §1

The nature of data set [4]: Human clinical study, urethral strictures: paclitaxel in blood, urine, semen. Type of data set: in vivo.
Description: Clinical subjects were evaluated at 14, 30, 90, 180, 365 days, and 2 years after the index procedure. Evaluations included analysis of stricture free rate, uroflowmetry including Qmax, and PVR.
For data set [5] the following is noted: with the addition of BSA; cited from earlier work.
A short description of data set [6]: BPH Preclinical Study 4: tissue pharmacokinetics of paclitaxel. It counts as in vivo, dog.
Source text: as §1

A short description of data set [7]: Human clinical study, BPH: paclitaxel in blood, urine, semen. It counts as in vivo.
For data set [8], the system named is albumin. The following applies: cited from earlier work.

As for `O=C(O)c1ccccc1` [benzoic acid], the “stability under ethylene oxide sterilization, heating, and aging process” value in data set [1] is “not stable”.
With `CC(=O)O[C@H]1C(=O)[C@@]2(C)[C@H]([C@H](OC(=O)c3ccccc3)[C@]3(O)C[C@H](OC(=O)[C@H](O)[C@@H](NC(=O)c4ccccc4)c4ccccc4)C(C)=C1C3(C)C)[C@]1(OC(C)=O)CO[C@@H]1C[C@@H]2O` [paclitaxel], the plasma paclitaxel concentration entry in data set [2] (maximum dose, 12 hour and later) was “BLOQ”; in data set [2] (standard dose, all time-points (1, 3, 7, 12 hours, 1, 3, 7, 14, and 28 days)), “BLOQ”. In addition, the clinical abnormalities entry in data set [3] (any animals, duration of the study) is given as “No significant clinical abnormalities”. Further, in data set [3] (maximum dose animals, slower healing relative to standard dose and control), the prostate histology result is “ongoing healing at 28 days”. In addition, the abnormalities or complications result in data set [3] (maximum dose treatment arm using 19.6 mg of paclitaxel) is on record as “no abnormalities or complications”. The “Human plasma paclitaxel concentration” value in data set [4] (1 hour, 3 hours, 5 hours, 10 hours, 24 hours, and 5 days) is on record as “below the level of quantification”. The concentration at 14 days in data set [4] (human, semen) came out at 2.5 ng/mL; in data set [4] (human, urine) it was 0.3 ng/mL; in data set [7] (male, human, semen, 2.4 μg of paclitaxel per millimeter squared, 14 days), 5.3 ng/mL. The concentration at 30 days stood at 1 ng/mL in data set [4] (human, semen); 0.1 ng/mL in data set [4] (human, urine); 5.1 ng/mL in data set [7] (male, human, urine, 2.4 μg of paclitaxel per millimeter squared, 30 days). In addition, in data set [4] (human, urine, 5 days), the concentration at 5 days worked out at 2.6 ng/mL. Moreover, the “Human urine paclitaxel concentration, average” value in data set [4] (immediately post procedure) amounted to 184 ng/mL; in data set [7] (immediately post procedure), 598 ng/mL. Also, the “Human plasma paclitaxel concentration, average” value in data set [4] (immediately post treatment) worked out at 0.1 ng/mL; in data set [7] (immediately post treatment), 0.2 ng/mL. Also, in data set [5], the “increase of solubility in PBS” value is on record as “over 20 fold”. Also, the “prostate drug concentration, maximum dose arm versus standard dose” value is reported as 4.5 times in data set [6] (28 days) and 23 times in data set [6] (70 days). Moreover, the results for the “prostatic urethra drug concentration, maximum dose arm versus standard dose” value in data set [6] (28 days) and in data set [6] (70 days) were 11 times and 23 times, respectively. Further, the “average drug concentration, epididymis” value in data set [6] (lowest, immediately after treatment) is 0.0017 µg/g. This compound registered a concentration at 28 days in data set [6] (male, mongrel, dog, prostate, other: transurethral drug-coated balloon catheter, 6.8 mg, standard dose arm, 28 days) of 20 ng/g. Also, the concentration at 1 h in data set [6] (male, mongrel, dog, prostatic urethra, other: transurethral drug-coated balloon catheter, 6.8 mg) turned out to be 28000 ng/g; in data set [7] (male, human, plasma, 2.4 μg of paclitaxel per millimeter squared, 1 hour), 0.2 ng/mL. Moreover, the concentration at 70 days in data set [6] (male, mongrel, dog, prostatic urethra, other: transurethral drug-coated balloon catheter, 6.8 mg, standard dose arm, 70 days) was 4 ng/g. In addition, in data set [6] (most samples, 28 days and beyond), the “nonurethral close proximity tissue sample concentrations” value is reported as “at or below the limit of quantification”. In data set [7] (male, human, plasma, 2.4 μg of paclitaxel per millimeter squared, 3 hours), this compound registered a concentration at 3 h of 0.1 ng/mL. Further, the concentration at 5 h in data set [7] (male, human, plasma, 2.4 μg of paclitaxel per millimeter squared, 5 hours) came to 0.1 ng/mL. In data set [7] (male, human, plasma, 2.4 μg of paclitaxel per millimeter squared, 10 hours), this compound came in with a concentration at 10 h of 0.07 ng/mL. Moreover, the concentration at 24 h in data set [7] (male, human, plasma, 2.4 μg of paclitaxel per millimeter squared, 24 hours) was 0.03 ng/mL. In data set [7] (male, human, urine, 2.4 μg of paclitaxel per millimeter squared, 4 days), this compound gave a concentration at 4 days of 202 ng/mL.
With `CO[C@H]1C[C@@H]2CC[C@@H](C)[C@@](O)(O2)C(=O)C(=O)N2CCCC[C@H]2C(=O)O[C@H]([C@H](C)C[C@@H]2CC[C@@H](O)[C@H](OC)C2)CC(=O)[C@H](C)/C=C(\C)[C@@H](O)[C@@H](OC)C(=O)[C@H](C)C[C@H](C)/C=C/C=C/C=C/1C` [rapamycin], in data set [8], the protein bound is recorded as 92%. Further, the “share of protein binding that is to albumin” value in data set [8] (primarily to albumin) was 97%.
